Assay: xn = mol fraction of the nth substance listed
Conditions: 100.5 kPa, Liquid; for viscosity: Capillary tube (Ostwald / Ubbelohde) method

CCOC(=O)CC(C)=O [ethyl 3-oxobutanoate] + CCO
Conditions | mass density, 288.15 K [kg/m3] | mass density, 298.15 K [kg/m3] | mass density, 308.15 K [kg/m3] | mass density, 318.15 K [kg/m3] | viscosity, 288.15 K [mPa·s] | viscosity, 298.15 K [mPa·s] | viscosity, 308.15 K [mPa·s] | viscosity, 318.15 K [mPa·s]
x1 = 0.05 | 818.78 | 809.91 | 800.94 | 791.8 | 1.266 | 1.042 | 0.869 | 0.731
x1 = 0.1 | 841 | 831.89 | 822.68 | 813.32 | 1.204 | 1.001 | 0.841 | 0.713
x1 = 0.15 | 860.94 | 851.63 | 842.22 | 832.67 | 1.19 | 0.99 | 0.832 | 0.709
x1 = 0.2 | 878.93 | 869.45 | 859.89 | 850.17 | 1.194 | 0.994 | 0.837 | 0.712
x1 = 0.25 | 895.25 | 885.63 | 875.91 | 866.05 | 1.206 | 1.003 | 0.846 | 0.721
x1 = 0.3 | 910.15 | 900.41 | 890.57 | 880.6 | 1.226 | 1.019 | 0.86 | 0.735
x1 = 0.35 | 923.79 | 913.94 | 903.99 | 893.92 | 1.25 | 1.038 | 0.878 | 0.751
x1 = 0.4 | 936.31 | 926.37 | 916.34 | 906.18 | 1.28 | 1.061 | 0.898 | 0.768
x1 = 0.45 | 947.86 | 937.83 | 927.73 | 917.49 | 1.312 | 1.087 | 0.921 | 0.789
x1 = 0.5 | 958.56 | 948.47 | 938.29 | 927.99 | 1.349 | 1.117 | 0.947 | 0.812
x1 = 0.55 | 968.53 | 958.37 | 948.11 | 937.75 | 1.39 | 1.151 | 0.974 | 0.836
x1 = 0.6 | 977.79 | 967.55 | 957.24 | 946.84 | 1.435 | 1.189 | 1.004 | 0.861
x1 = 0.65 | 986.4 | 976.13 | 965.77 | 955.36 | 1.484 | 1.227 | 1.036 | 0.888
x1 = 0.7 | 994.51 | 984.17 | 973.79 | 963.33 | 1.536 | 1.27 | 1.073 | 0.917
x1 = 0.75 | 1002.07 | 991.71 | 981.29 | 970.82 | 1.591 | 1.316 | 1.112 | 0.948
x1 = 0.8 | 1009.18 | 998.79 | 988.36 | 977.88 | 1.65 | 1.366 | 1.154 | 0.983
x1 = 0.85 | 1015.85 | 1005.46 | 995.02 | 984.54 | 1.709 | 1.415 | 1.199 | 1.018
x1 = 0.9 | 1022.16 | 1011.74 | 1001.3 | 990.84 | 1.773 | 1.471 | 1.247 | 1.059
x1 = 0.95 | 1028.15 | 1017.72 | 1007.29 | 996.82 | 1.834 | 1.524 | 1.295 | 1.103
x1 = 1 | 1033.92 | 1023.45 | 1013 | 1002.54 | 1.902 | 1.581 | 1.344 | 1.144
